Results as given in PubChem BioAssay AID2060909 (Molecular Pharmacology Branch, DTP, NCI, 2025).

Test system: 362531-283-R-J2-PDC complex spheroid viability
Experiment: Anticancer human tumor 362531-283-R-J2-PDC patient-derived colon adenocarcinoma cell line growth inhibition [RAS]
Conditions: for IC50: curve of first compound; for viability, T/C: stronger effect = lower value
Summary of the method: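 Agents were tested in combination matrices in half-log decrements from a top concentration at or near clinical Cmax (10 microM if undetermined). Targets were multi-cell spheroids of tumour lines plus HUVEC and MSC stromal cells.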

[1] = second compound 0.00316 µM, first compound 0.000949 µM
[2] = second compound 0.00316 µM, first compound 0.003 µM
[3] = second compound 0.00316 µM, first compound 0.00949 µM
[4] = second compound 0.00316 µM, first compound 0.03 µM
[5] = second compound 0.00316 µM, first compound 0.0949 µM
[6] = second compound 0.00316 µM, first compound 0.3 µM
[7] = second compound 0.01 µM, first compound 0.000949 µM
[8] = second compound 0.01 µM, first compound 0.003 µM
[9] = second compound 0.01 µM, first compound 0.00949 µM
[10] = second compound 0.01 µM, first compound 0.03 µM
[11] = second compound 0.01 µM, first compound 0.0949 µM
[12] = second compound 0.01 µM, first compound 0.3 µM
[13] = second compound 0.0316 µM, first compound 0.000949 µM
[14] = second compound 0.0316 µM, first compound 0.003 µM
[15] = second compound 0.0316 µM, first compound 0.00949 µM
[16] = second compound 0.0316 µM, first compound 0.03 µM
[17] = second compound 0.0316 µM, first compound 0.0949 µM
[18] = second compound 0.0316 µM, first compound 0.3 µM
[19] = second compound 0.1 µM, first compound 0.000949 µM
[20] = second compound 0.1 µM, first compound 0.003 µM
[21] = second compound 0.1 µM, first compound 0.00949 µM
[22] = second compound 0.1 µM, first compound 0.03 µM
[23] = second compound 0.1 µM, first compound 0.0949 µM
[24] = second compound 0.1 µM, first compound 0.3 µM
[25] = second compound 0.316 µM, first compound 0.000949 µM
[26] = second compound 0.316 µM, first compound 0.003 µM
[27] = second compound 0.316 µM, first compound 0.00949 µM
[28] = second compound 0.316 µM, first compound 0.03 µM
[29] = second compound 0.316 µM, first compound 0.0949 µM
[30] = second compound 0.316 µM, first compound 0.3 µM
[31] = second compound 1 µM, first compound 0.000949 µM
[32] = second compound 1 µM, first compound 0.003 µM
[33] = second compound 1 µM, first compound 0.00949 µM
[34] = second compound 1 µM, first compound 0.03 µM
[35] = second compound 1 µM, first compound 0.0949 µM
[36] = second compound 1 µM, first compound 0.3 µM
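Further: spheroids exposed to the agents for 7 days before readout.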
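Wherever viability, T/C is given: luminescence viability as percent of DMSO vehicle control wells.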

Compound: CC1(C)CCC(Nc2ncc(C(F)(F)F)c(-c3c[nH]c4c(P(C)(C)=O)c(C#N)ccc34)n2)CN1 (stereo unspecified) + C=CC(=O)N1CCN(c2nc(OCC3CCCN3C)nc3c(F)c(-c4nc(N)cc(C)c4C(F)(F)F)c(Cl)cc23)C(C)C1
- IC50 (second compound 0.00316 µM): > 300 nM
- IC50 (second compound 0.01 µM): > 300 nM
- IC50 (second compound 0.0316 µM): > 300 nM
- IC50 (second compound 0.1 µM): > 300 nM
- IC50 (second compound 0.316 µM): > 300 nM
- IC50 (second compound 1 µM): > 300 nM
- viability, T/C [1]: 96.5%
- viability, T/C [2]: 104%
- viability, T/C [3]: 103%
- viability, T/C [4]: 100%
- viability, T/C [5]: 107%
- viability, T/C [6]: 99.1%
- viability, T/C [7]: 103%
- viability, T/C [8]: 112%
- viability, T/C [9]: 104%
- viability, T/C [10]: 98.8%
- viability, T/C [11]: 109%
- viability, T/C [12]: 101%
- viability, T/C [13]: 105%
- viability, T/C [14]: 105%
- viability, T/C [15]: 103%
- viability, T/C [16]: 98.7%
- viability, T/C [17]: 106%
- viability, T/C [18]: 96.5%
- viability, T/C [19]: 102%
- viability, T/C [20]: 105%
- viability, T/C [21]: 104%
- viability, T/C [22]: 103%
- viability, T/C [23]: 104%
- viability, T/C [24]: 107%
- viability, T/C [25]: 109%
- viability, T/C [26]: 103%
- viability, T/C [27]: 111%
- viability, T/C [28]: 98.6%
- viability, T/C [29]: 112%
- viability, T/C [30]: 93.5%
- viability, T/C [31]: 99.2%
- viability, T/C [32]: 101%
- viability, T/C [33]: 98.9%
- viability, T/C [34]: 108%
- viability, T/C [35]: 113%
- viability, T/C [36]: 105%

Compound: CCc1c2c(nc3ccc(O)cc13)-c1cc3c(c(=O)n1C2)COC(=O)[C@]3(O)CC + C=CC(=O)N1CCN(c2nc(OCC3CCCN3C)nc3c(F)c(-c4nc(N)cc(C)c4C(F)(F)F)c(Cl)cc23)C(C)C1
- IC50 (second compound 0.00316 µM): 24.6 nM
- IC50 (second compound 0.01 µM): 24.2 nM
- IC50 (second compound 0.0316 µM): 30.2 nM
- IC50 (second compound 0.1 µM): 20.5 nM
- IC50 (second compound 0.316 µM): 24.4 nM
- IC50 (second compound 1 µM): 23.5 nM
- viability, T/C [1]: 89.9%
- viability, T/C [2]: 104%
- viability, T/C [3]: 61.3%
- viability, T/C [4]: 51.9%
- viability, T/C [5]: 31.2%
- viability, T/C [6]: 26.8%
- viability, T/C [7]: 95.5%
- viability, T/C [8]: 93.6%
- viability, T/C [9]: 84.6%
- viability, T/C [10]: 42.4%
- viability, T/C [11]: 29.5%
- viability, T/C [12]: 35.1%
- viability, T/C [13]: 96.2%
- viability, T/C [14]: 91.8%
- viability, T/C [15]: 72.7%
- viability, T/C [16]: 46.5%
- viability, T/C [17]: 37.3%
- viability, T/C [18]: 20.7%
- viability, T/C [19]: 111%
- viability, T/C [20]: 101%
- viability, T/C [21]: 54%
- viability, T/C [22]: 54%
- viability, T/C [23]: 33%
- viability, T/C [24]: 29.1%
- viability, T/C [25]: 87.2%
- viability, T/C [26]: 92.4%
- viability, T/C [27]: 71.5%
- viability, T/C [28]: 43.8%
- viability, T/C [29]: 37.1%
- viability, T/C [30]: 24.5%
- viability, T/C [31]: 99.6%
- viability, T/C [32]: 87.1%
- viability, T/C [33]: 71.9%
- viability, T/C [34]: 42.3%
- viability, T/C [35]: 33.3%
- viability, T/C [36]: 26.3%

Compound: C=CC(=O)Nc1cc(Nc2nccc(-c3cn(C)c4ccccc34)n2)c(OC)cc1N(C)CCN(C)C + CCn1c(-c2cc(N3CCN(C)CC3)cnc2C(C)OC)c2c3cc(ccc31)-c1csc(n1)CC(NC(=O)C1CC1C)C(=O)N1CCCC(N1)C(=O)OCC(C)(C)C2
- IC50 (second compound 0.000949 µM): > 1000 nM
- IC50 (second compound 0.003 µM): > 1000 nM
- IC50 (second compound 0.00949 µM): 606 nM
- IC50 (second compound 0.03 µM): 464 nM
- IC50 (second compound 0.0949 µM): 129 nM
- IC50 (second compound 0.3 µM): < 3.16 nM
- viability, T/C (second compound 0.000949 µM, first compound 0.00316 µM): 87.5%
- viability, T/C (second compound 0.000949 µM, first compound 0.01 µM): 104%
- viability, T/C (second compound 0.000949 µM, first compound 0.0316 µM): 91.4%
- viability, T/C (second compound 0.000949 µM, first compound 0.1 µM): 88%
- viability, T/C (second compound 0.000949 µM, first compound 0.316 µM): 98.2%
- viability, T/C (second compound 0.000949 µM, first compound 1 µM): 65.6%
- viability, T/C (second compound 0.003 µM, first compound 0.00316 µM): 97.7%
- viability, T/C (second compound 0.003 µM, first compound 0.01 µM): 94.6%
- viability, T/C (second compound 0.003 µM, first compound 0.0316 µM): 94.6%
- viability, T/C (second compound 0.003 µM, first compound 0.1 µM): 89.3%
- viability, T/C (second compound 0.003 µM, first compound 0.316 µM): 91.9%
- viability, T/C (second compound 0.003 µM, first compound 1 µM): 63.1%
- viability, T/C (second compound 0.00949 µM, first compound 0.00316 µM): 93.3%
- viability, T/C (second compound 0.00949 µM, first compound 0.01 µM): 115%
- viability, T/C (second compound 0.00949 µM, first compound 0.0316 µM): 81.1%
- viability, T/C (second compound 0.00949 µM, first compound 0.1 µM): 78.9%
- viability, T/C (second compound 0.00949 µM, first compound 0.316 µM): 80.4%
- viability, T/C (second compound 0.00949 µM, first compound 1 µM): 31.4%
- viability, T/C (second compound 0.03 µM, first compound 0.00316 µM): 92.2%
- viability, T/C (second compound 0.03 µM, first compound 0.01 µM): 91.8%
- viability, T/C (second compound 0.03 µM, first compound 0.0316 µM): 83%
- viability, T/C (second compound 0.03 µM, first compound 0.1 µM): 85.6%
- viability, T/C (second compound 0.03 µM, first compound 0.316 µM): 69.6%
- viability, T/C (second compound 0.03 µM, first compound 1 µM): 11.8%
- viability, T/C (second compound 0.0949 µM, first compound 0.00316 µM): 81.3%
- viability, T/C (second compound 0.0949 µM, first compound 0.01 µM): 75.4%
- viability, T/C (second compound 0.0949 µM, first compound 0.0316 µM): 76.5%
- viability, T/C (second compound 0.0949 µM, first compound 0.1 µM): 59.2%
- viability, T/C (second compound 0.0949 µM, first compound 0.316 µM): 18.5%
- viability, T/C (second compound 0.0949 µM, first compound 1 µM): 10.8%
- viability, T/C (second compound 0.3 µM, first compound 0.00316 µM): 42.3%
- viability, T/C (second compound 0.3 µM, first compound 0.01 µM): 38.4%
- viability, T/C (second compound 0.3 µM, first compound 0.0316 µM): 32.7%
- viability, T/C (second compound 0.3 µM, first compound 0.1 µM): 23%
- viability, T/C (second compound 0.3 µM, first compound 0.316 µM): 10.8%
- viability, T/C (second compound 0.3 µM, first compound 1 µM): 8.2%
